Test: Inhibition of p37 in Vaccinia virus Copenhagen infected in African green monkey Vero cells assessed as reduction in viral reproduction incubated for 4 days by neutral red dye based colorimetric analysis

In order of rising IC50:
1. O=C(NN1C(=O)[C@@H]2[C@@H]3C=C[C@@H]([C@H]4C[C@@H]34)[C@@H]2C1=O)c1ccc(C(F)(F)F)cc1 [Tecovirimat]  0.0027 µM
2. O=C(NC12CC3CC(CC(C3)C1)C2)c1ccc(C(F)(F)F)cc1  0.133 µM
3. O=C(NC1C2CC3CC(C2)CC1C3)c1ccc(C(F)(F)F)cc1 (stereo not drawn)  0.216 µM
4. O=C(NCC12CC3CC(CC(C3)C1)C2)c1ccc(C(F)(F)F)cc1  0.27 µM
5. CC(NNC(=O)c1ccc(C(F)(F)F)cc1)C12CC3CC(CC(C3)C1)C2 (stereo not drawn)  0.515 µM
6. O=C(NNC(=O)C12CC3CC(CC(C3)C1)C2)c1ccc(C(F)(F)F)cc1  1.07 µM
7. CCC12CC3CC(C1)CC(NNC(=O)c1ccc(C(F)(F)F)cc1)(C3)C2  1.66 µM
8. O=C(NNC1C2CC3CC(C2)CC1C3)c1ccc(C(F)(F)F)cc1 (stereo not drawn)  2.8 µM
9. O=C(NC1C2CC3CC(C2)CC1C3)c1ccc(Br)cc1 (stereo not drawn)  3.06 µM
10. O=C(NNC1C2CC3CC1CC(Cl)(C3)C2)c1ccc(C(F)(F)F)cc1 (stereo not drawn)  3.52 µM
11. CCC12CC3CC(C1)CC(NC(=O)c1ccc(C(F)(F)F)cc1)(C3)C2  4.1 µM
12. CN(C(=O)c1ccc(C(F)(F)F)cc1)C12CC3CC(CC(C3)C1)C2  4.85 µM
13. O=C(NCC12CC3CC(CC(C3)C1)C2)c1ccc(Br)cc1  8.3 µM
14. CC12CC3CC(C1)CC(NC(=O)c1ccc(C(F)(F)F)cc1)(C3)C2  8.98 µM
15. CCC12CC3CC(C1)CC(C(=O)NNC(=O)c1ccc(C(F)(F)F)cc1)(C3)C2  12.5 µM
16. CC12CC3CC(C)(C1)CC(C(=O)NNC(=O)c1ccc(C(F)(F)F)cc1)(C3)C2  30.9 µM
17. O=C(NNC(=O)c1ccc(C(F)(F)F)cc1)NC12CC3CC(CC(C3)C1)C2  36.3 µM
18. O=C(NN=C1C2CC3CC(C2)CC1C3)c1ccc(C(F)(F)F)cc1  198 µM
